In US8846601B2, “Melanocortin receptor-specific peptides” (Palatin Technologies, Inc., priority 2009, dated 2014):
Bridge positions count the residues as written; N and C are the ends. Square brackets hold non-standard residues; d marks the D form. Peptide text beside a SMILES is read from it. * marks the point of attachment. Bn = c1ccc(C*)cc1

Target: hMC4-R (Homo sapiens (Human), UniProt P32245)
Assay: Competitive inhibition binding assay using [I125]-NDP-α-MSH, hMC4-R membranes
Conditions: averaged; [I125]-NDP-α-MSH (values not marked *); read-out: MC4-R Ki
Experimental: A competitive inhibition binding assay is performed using membrane homogenates prepared from HEK-293 cells that express recombinant hMC4-R, hMC3-R, or hMC5-R, and from B-16 mouse melanoma cells (containing endogenous MC1-R). In some instances, HEK-293 cells that express recombinant hMC1-R were employed. In the examples that follow, all MC3-R, MC4-R and MC5-R values are for human recombinant receptors. […] Membrane homogenates were incubated with 0.2 nM (for hMC4-R) 0.4 nM (for MC3-R and MC5-R) or 0.1 nM (for mouse B16 MC1-R or hMC1-R) [I^125]-NDP-α-MSH (Perkin Elmer) and increasing concentrations of test peptides of the present invention in buffer containing 25 mM HEPES buffer (pH 7.5) with 100 mM NaCl, 2 mM CaCl2, 2 mM MgCl2, 0.3 mM 1,10-phenanthroline, and 0.2% bovine serum albumin. After incubation for 60 minutes at 37° C., the assay mixture was filtered and the membranes washed three times with ice-cold buffer. Filters were dried and counted in a gamma counter for bound radioactivity. […] Maximal specific binding (100%) was defined as the difference in radioactivity (cpm) bound to cell membranes in the absence and presence of 1 μM NDP-α-MSH. […] Each assay was conducted in triplicate and the actual mean values are described, with results less than 0% reported as 0%. Ki values for test peptides of the present invention were determined using Graph-Pad Prism® curve-fitting software.

hMC4-R, sequence (P32245 whole entry): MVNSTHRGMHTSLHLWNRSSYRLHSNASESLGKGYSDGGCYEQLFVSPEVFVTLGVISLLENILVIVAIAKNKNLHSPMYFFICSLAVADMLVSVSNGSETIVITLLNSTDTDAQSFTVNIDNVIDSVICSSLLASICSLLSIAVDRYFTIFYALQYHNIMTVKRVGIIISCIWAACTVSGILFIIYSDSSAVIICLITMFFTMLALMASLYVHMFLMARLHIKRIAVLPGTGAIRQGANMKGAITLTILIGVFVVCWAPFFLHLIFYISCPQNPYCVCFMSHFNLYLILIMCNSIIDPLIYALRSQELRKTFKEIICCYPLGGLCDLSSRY

Row | Ki | SMILES
1 | 172 nM | CC(=O)N[C@@H](CCCNC(=N)N)C(=O)N[C@H]1CC(=O)NCCCC[C@@H](C(N)=O)NC(=O)[C@H](Cc2c[nH]c3ccccc23)NC(=O)[C@H](CCCNC(=N)N)NC(=O)[C@@H](Cc2ccccc2)NC(=O)[C@H](CO)NC1=O [Peptide No. 3, Ac-Arg-cyclo(Asp-Ser- D-Phe-Arg-Trp-Lys)- NH2]
2 | 1 nM | CC(=O)N[C@@H](CCCNC(=N)N)C(=O)N[C@H]1CC(=O)NCCCC[C@@H](C(N)=O)NC(=O)[C@H](Cc2c[nH]c3ccccc23)NC(=O)[C@H](CCCNC(=N)N)NC(=O)[C@@H](Cc2ccccc2)NC(=O)[C@H]([C@@H](C)OCc2ccccc2)NC1=O [compound 14, Ac-Arg-cyclo(Asp- Thr(Bzl)-D-Phe-Arg- Trp-Lys)-NH2] (Ac-RDT(Bn)[dF]RWK-NH2; lactam 2-7)
3 | 3 nM | CC(=O)N[C@@H](CCCNC(=N)N)C(=O)N[C@H]1CC(=O)NCCCC[C@@H](C(N)=O)NC(=O)[C@H](Cc2c[nH]c3ccccc23)NC(=O)[C@H](CCCNC(=N)N)NC(=O)[C@@H](Cc2cccc3ccccc23)NC(=O)[C@H](Cc2c[nH]cn2)NC1=O [compound 19, Ac-Arg-cyclo(Asp-His- D-Nal 1-Arg-Trp-Lys)- NH2]
4 | 15 nM | CC(=O)N[C@@H](CCCNC(=N)N)C(=O)N[C@H]1CC(=O)NCCCC[C@@H](C(N)=O)NC(=O)[C@H](Cc2c[nH]c3ccccc23)NC(=O)[C@H](CCCNC(=N)N)NC(=O)[C@@H](Cc2ccccc2)NC(=O)[C@H](Cc2cccc(C(N)=O)c2)NC1=O [compound 49, Ac-Arg-cyclo(Asp-Phe- (3-(C(═O)—NH2))-D-Phe- Arg-Trp-Lys)-NH2]
5 | 30 nM | CC(=O)N[C@@H](CCCNC(=N)N)C(=O)N[C@H]1CC(=O)NCCCC[C@@H](C(N)=O)NC(=O)[C@H](Cc2c[nH]c3ccccc23)NC(=O)[C@H](CCCNC(=N)N)NC(=O)[C@@H](Cc2ccccc2)NC(=O)[C@H](Cc2ccc(C(N)=O)cc2)NC1=O [compound 50, Ac-Arg-cyclo(Asp- Phe(4-(C(═O)—NH2))-D- Phe-Arg-Trp-Lys)-NH2]
6 | 3 nM | CC(=O)N[C@@H](CCCNC(=N)N)C(=O)N[C@H]1CC(=O)NCCCC[C@@H](C(=O)O)NC(=O)[C@H](Cc2c[nH]c3ccccc23)NC(=O)[C@H](CCCNC(=N)N)NC(=O)[C@@H](Cc2ccccc2)NC(=O)[C@@H]2C[C@@H](OCc3ccccc3)CN2C1=O [compound 54, Ac-Arg-cyclo(Asp- Hyp(Bzl)-D-Phe-Arg- Trp-Lys)-OH]
7 | 12 nM | CC(=O)N[C@@H](CCCNC(=N)N)C(=O)N[C@H]1CC(=O)NCCCC[C@@H](C(=O)O)NC(=O)[C@H](Cc2c[nH]c3ccccc23)NC(=O)[C@H](CCCNC(=N)N)NC(=O)[C@@H](Cc2ccccc2)NC(=O)[C@@H]2C[C@@H](Cc3ccccc3)CN2C1=O [compound 55, Ac-Arg-cyclo(Asp- Pro(Bn)-D-Phe-Arg- Trp-Lys)-OH]
8 | 23 nM | CC(=O)N[C@@H](CCCNC(=N)N)C(=O)N[C@H]1CC(=O)NCCCC[C@@H](C(=O)O)NC(=O)[C@H](Cc2c[nH]c3ccccc23)NC(=O)[C@H](CCCNC(=N)N)NC(=O)[C@@H](Cc2ccccc2)NC(=O)[C@H](CCCN)NC1=O [compound 58, Ac-Arg-cyclo(Asp-Orn- D-Phe-Arg-Trp-Lys)-OH]
9 | 15 nM | CC(=O)N[C@@H](CCCNC(=N)N)C(=O)N[C@H]1CC(=O)NCCCC[C@@H](C(N)=O)NC(=O)[C@H](Cc2c[nH]c3ccccc23)NC(=O)[C@H](CCCNC(=N)N)NC(=O)[C@@H](Cc2ccccc2)NC(=O)CN(C)C1=O [compound 63, Ac-Arg-cyclo(Asp-Sar- D-Phe-Arg-Trp-Lys)- NH2]
10 | 0.6 nM | CC(=O)N[C@@H](CCCNC(=N)N)C(=O)N[C@H]1CCCNC(=O)CC[C@@H](C(N)=O)NC(=O)[C@H](Cc2c[nH]c3ccccc23)NC(=O)[C@H](CCCNC(=N)N)NC(=O)[C@@H](Cc2ccccc2)NC(=O)[C@H](Cc2c[nH]cn2)NC1=O [compound 75, Ac-Arg-cyclo(Orn-His- D-Phe-Arg-Trp-Glu)- NH2] (HELM PEPTIDE1{[ac].R.[Orn].H.[dF].R.W.E.[am]}$PEPTIDE1,PEPTIDE1,3:R3-8:R3$$$V2.0)
11 | 4 nM | CC(=O)N[C@@H](CCCNC(=N)N)C(=O)N[C@H]1CC(=O)NCCCC[C@@H](C(N)=O)NC(=O)[C@H](Cc2c[nH]c3ccccc23)NC(=O)[C@H](CCCNC(=N)N)NC(=O)[C@@H](Cc2ccccc2)NC(=O)[C@@H]2C[C@@H](O)CN2C1=O [compound 79, Ac-Arg-cyclo(Asp-Hyp- D-Phe-Arg-Trp-Lys)- NH2]
12 | 4 nM | CC(=O)N[C@@H](CCCNC(=N)N)C(=O)N[C@H]1CCC(=O)NCCC[C@@H](C(=O)O)NC(=O)[C@H](Cc2c[nH]c3ccccc23)NC(=O)[C@H](CCCNC(=N)N)NC(=O)[C@@H](Cc2ccccc2)NC(=O)[C@H](Cc2c[nH]cn2)NC1=O [compound 82, Ac-Arg-cyclo(Glu-His- D-Phe-Arg-Trp-Orn)- OH] (HELM PEPTIDE1{[ac].R.E.H.[dF].R.W.[Orn]}$PEPTIDE1,PEPTIDE1,3:R3-8:R3$$$V2.0)
13 | 9 nM | CC(=O)N[C@@H](CCCNC(=N)N)C(=O)N[C@H]1CCC(=O)NCCC[C@@H](C(=O)O)NC(=O)[C@H](Cc2c[nH]c3ccccc23)NC(=O)[C@H](CCCNC(=N)N)NC(=O)[C@@H](Cc2ccccc2)NC(=O)[C@H](CCCN)NC1=O [compound 90, Ac-Arg-cyclo(Glu-Orn- D-Phe-Arg-Trp-Orn)- OH]
14 | 6 nM | N=C(N)NCCC[C@@H]1NC(=O)[C@@H](Cc2ccccc2)NC(=O)[C@H](Cc2c[nH]cn2)NC(=O)[C@@H](NC(=O)[C@@H](N)CCCNC(=N)N)CCCNC(=O)CC[C@@H](C(N)=O)NC(=O)[C@H](Cc2c[nH]c3ccccc23)NC1=O [compound 99, Arg-cyclo(Orn-His-D- Phe-Arg-Trp-Glu)-NH2] (HELM PEPTIDE1{R.[Orn].H.[dF].R.W.E.[am]}$PEPTIDE1,PEPTIDE1,2:R3-7:R3$$$V2.0)
15 | 9 nM | CC(=O)N[C@@H](CCCNC(=N)N)C(=O)N[C@H]1CCC(=O)NCCC[C@@H](C(N)=O)NC(=O)[C@H](Cc2c[nH]c3ccccc23)NC(=O)[C@H](CCCNC(=N)N)NC(=O)[C@@H](Cc2ccccc2)NC(=O)[C@H](CC[S+](C)[O-])NC1=O (stereo partly drawn) [compound 111, Ac-Arg-cyclo(Glu- Met(═O)-D-Phe-Arg- Trp-Orn)-NH2]
16 | 1450 nM | CC(=O)N[C@@H](CCCNC(=N)N)C(=O)N[C@H]1CC(=O)NCCCC[C@@H](C(N)=O)NC(=O)[C@H](Cc2c[nH]c3ccccc23)NC(=O)[C@H](CCCNC(=N)N)NC(=O)[C@@H](Cc2ccccc2)NC(=O)[C@H](CO)NC1=O [compound 117, Ac-Arg-cyclo(Asp-Ser- D-Phe-Cit-Trp-Lys)-NH2]
17 | 0.4 nM | CC(=O)N[C@@H](CCCNC(=N)N)C(=O)N[C@H]1CCCCNC(=O)C[C@@H](C(N)=O)NC(=O)[C@H](Cc2c[nH]c3ccccc23)NC(=O)[C@H](CCCNC(=N)N)NC(=O)[C@@H](Cc2ccccc2)NC(=O)[C@H](CCN)NC1=O [compound 121, Ac-Arg-cyclo(Lys-Dab- D-Phe-Arg-Trp-Asp)- NH2] (HELM PEPTIDE1{[ac].R.K.[Dab].[dF].R.W.D.[am]}$PEPTIDE1,PEPTIDE1,3:R3-8:R3$$$V2.0)

Row | SMILES | Ki
18 | CC(=O)N[C@@H](CCCNC(=N)N)C(=O)N[C@H]1CC(=O)NCCCC[C@@H](C(N)=O)NC(=O)[C@H](Cc2c[nH]c3ccccc23)NC(=O)[C@H](CCCNC(=N)N)NC(=O)[C@@H](Cc2ccccc2)NC(=O)[C@H](CCC(N)=O)NC1=O [compound 57, Ac-Arg-cyclo(Asp-Gln- D-Phe-Arg-Trp-Lys)-OH] | 115 nM
